Source: US6767705B2, “Reagents and methods for identifying and modulating expression of genes regulated by retinoids” (The Board of Trustees of the University of Illinois, priority 2000, dated 2004)

How the values were obtained:
MCF-7 cells [1] = experiment: cDNA microarray hybridization (Human UniGEM V) of RA-treated vs untreated MCF-7 cells; assay type: cell-based; conditions: 100 nM RA, 5 days
Description: To study gene expression changes, poly(A)+ RNA was isolated from untreated MCF-7 cells and from cells treated for 5 days with 100 nM RA. cDNA was prepared from these RNA populations and the cDNA hybridized with a cDNA microarray (Human UniGEM V cDNA microarray, Incyte Genomics, St. Louis, Mo.) that contains >7,000 cDNAs of different human genes and ESTs. cDNA probe synthesis, hybridization with the microarray and signal analyses were conducted by IncyteGenomics as a commercial service.

MCF-7 cells [2] = experiment: Clonogenic assay (colony formation / plating efficiency) of MCF-7 cells after RA treatment; assay type: cell-based, human
Description: FIGS. 1A and 1B are graphs showing the effects of retinoic acid (RA) on colony formation by MCF-7 cells. In each assay, 1.5×10^5 cells were plated per P100, in the absence or in the presence of RA. For clonogenic assays, cells were trypsinized after treatment, and 2,500 cells were plated per P100 and grown in drug-free media. […] Each point represents the mean and standard deviation for triplicate assays.
Clonogenic assays were performed to analyze the differences in proliferative capacity in MCF-7 cells after treatment with 100 nM RA for varying times. Cells were exposed to 100 nM RA for 1-7 days and tested for their capacity to form colonies after treatment at each time point. […] The decrease was initially rapid (from 100% to 40% plating efficiency after 2 days incubation with RA) and decreased more slowly to a final plating efficiency of about 10% at day 7.

MCF-7 cells [3] = experiment: Immunocytochemical and immunoblotting analysis of IGFBP-3, HIF2α/EPAS-1 and EPLIN proteins in MCF-7 cells; assay type: cell-based, human; conditions: 100 nM RA for 5 days, MCF-7 cells (FIG. 3A, 3B)
Description: FIG. 3A is a photomicrograph and FIG. 3B is a photograph of an immunoblot showing induction of IGFBP-3, HIF2α/EPAS-1 and EPLIN proteins in RA-treated cells.
Induction of three genes in this group was tested and confirmed at the protein level, by immunocytochemical assays, shown in FIG. 3A, using rabbit polyclonal antibody against EPLIN (a gift of Dr. David Chang, UCLA), and goat polyclonal antibodies against IGFBP-3 and EPAS-1/HIF-2α (Santa Cruz Biotechnology, Inc., Santa Cruz, Calif.) and standard techniques. Antibody staining was detected using Vectastain kit (Vector Labs, Burlingame, Calif.) according to the manufacturer's instructions.
The EPLIN gene encodes two protein isoforms. EPLINα and EPLINβ, with the larger (β) isoform showing a stronger growth-inhibitory effect. The observed induction of EPLIN gene expression was confirmed by immunocytochemical and immunoblotting assays (results shown in FIGS. 3A and 3B). These assays were performed using rabbit polyclonal antibody against EPLIN (a gift of Dr. David Chang, UCLA) and were carried out by standard techniques. Antibody staining was detected using Vectastain kit (Vector Labs) for immunocytochemistry and horseradish peroxidase-conjugated goat anti-rabbit IgG (Santa Cruz) for immunobloting.

p21 = conditions: retinoic acid-induced growth inhibition in MCF-7 cells; cited from earlier work
MCF-7 cells [4] = experiment: RT-PCR analysis of expression of retinoid-inducible genes in MCF-7 cells; assay type: cell-based, human
Description: FIGS. 2A through 2C show the results of RT-PCR analysis of changes in the expression of retinoid-inducible genes as described in Example 1. The identity of each gene is followed by the NCBI Accession Number (in parentheses). […] The designations “R5” and “R8” correspond to days 5 and 8 after release from 5-day RA treatment, respectively.
RT-PCR analysis was carried out essentially as described (Noonan et al., 1990, Proc. Natl. Acad. Sci. USA 87: 7160-7164), using β-actin as an internal normalization standard.

[5] = test system: MCF-7 human breast carcinoma cells; conditions: cited from earlier work
[6] = test system: xenografts of MCF-10T neo mammary epithelial cells; conditions: xenografts in vivo after treatment with fenretinide; cited from earlier work
[7] = 100 nM RA, MCF-7 cells (FIG. 2A)

Structure (SMILES) | decrease in balanced differential expression, 20 genes (MCF-7 cells [1]) | increase in balanced differential expression, 27 genes (MCF-7 cells [1]) | maximum decrease in relative hybridization intensity of any gene in the microarray (MCF-7 cells [1]) [fold] | maximum increase in relative hybridization intensity of any gene in the microarray (MCF-7 cells [1]) [fold] | plating efficiency, normalized to untreated control (MCF-7 cells [2]; 100 nM RA, after 2 days incubation, MCF-7 cells (FIG. 1A)) [%] | final plating efficiency, normalized to untreated control (MCF-7 cells [2]; 100 nM RA, day 7, MCF-7 cells (FIG. 1A)) | plating efficiency at varying concentrations of RA (MCF-7 cells [2]; 40 hr treatment, indicated doses, lowest 10 nM, MCF-7 cells (FIG. 1B)) | expression of IGFBP-3, EPAS-1/HIF2α and EPLIN proteins (MCF-7 cells [3]) | induction of p21 (p21) | time course of changes in RNA levels of the 13 genes (MCF-7 cells [4]; [7]) | time to maximum expression of RNF (MCF-7 cells [4]; [7]) | RA dose-dependence of gene expression of the 13 genes (MCF-7 cells [4]; 40 hr treatment, lowest dose 10 nM, MCF-7 cells (FIG. 2B)) | induction of 13 upregulated genes by RT-PCR (MCF-7 cells [4]; RA-treated MCF-7 cells, printed as '5-10 fold or more' (FIGS. 2A, 2B)) | continuous exposure required for the growth arrest effect to become apparent ([5]; low dose RA (between 10-100 nM), MCF-7 cells) [days] | growth arrest and cell death in MCF-7 cells ([5]; relatively low doses of RA (between 10-100 nM)) | induction of the 13 genes (MCF-7 cells [4]; 1 μM fenretinide, MCF-7 cells (FIG. 2C)) | induction of senescence-associated marker SA-β-gal [6]
CC1=C(/C=C/C(C)=C/C=C/C(C)=C/C(=O)O)C(C)(C)CCC1 [RA, all-trans retinoic acid] | 1.7-3.0 fold | 1.4-2.5 fold | ≤ 3 | ≤ 2.5 | 40 | about 10% | dose-dependent reduction in plating efficiency at all tested doses (as low as 10 nM) | increased expression of the corresponding proteins | does not induce p21 | many of them increased their expression between days 1 and 4 of RA treatment | maximum expression after just one day of treatment | almost all of these genes were induced even by the lowest (10 nM) dose | 5-10 fold | 4 to 6 | induce irreversible growth arrest in MCF-7 cells, while producing only a minor reduction in cell numbers caused by cell death |  | 
CC1=C(/C=C/C(C)=C/C=C/C(C)=C/C(=O)Nc2ccc(O)cc2)C(C)(C)CCC1 [fenretinide, 4-hydroxyphenylretinamide] |  |  |  |  |  |  |  |  |  |  |  |  |  |  |  | All 13 genes were also induced | Induction of SA-β-gal was also observed
